Measurements: US8008494B2, “Soluble amide and ester pyrazinoylguanidine sodium channel blockers” (Parion Sciences, Inc., priority 2004, dated 2011)
Structures can show the parent of a compound that is named as a salt. Where two headings read alike, the source gives them in different places.

Columns and labels:
[1] = Solubility of compounds in sodium chloride solution; type: physicochemical; conditions: saline or isotonic, thermodynamic from solid
Description: Compound solubility was measured in water, 0.12 or 0.9% sodium chloride solution at ambient temperature for up to 10 days. Using a UV/Visable Spectrophotometer and applying Beer's Law with the calculated extinction coeffecient of amiloride (18.6 mM, absorbance values at 362 nm taken from D. Mazzo 1986) the free base concentration in solution was calculated at specified time points. All samples were stored for the duration of the experiment in a single/closure system consisting of glass vials with a stopper-top closure. The vials were maintained at ambient temperature, in the dark, and in the upright position. Compound stability was measured using reverse phase high performance liquid chromatography on the final filtered pulled sample (day 10).
Table 2 gives the solubility in saline of selected amide bis methane sulfonic acid salts and compares them to the mono addition methane sulfonic acid salt of PSA 9714.

[2] = molecular target: T1, Epithelial Sodium Channel (ENaC) (Canis lupus familiaris, UniProt A0A8I3MKE6+A0A8I3Q679+Q95165); experiment: Sodium channel (ENaC) blocking activity, short circuit current in airway epithelial monolayers in Ussing chambers; type: cell-based; conditions: canine bronchial epithelium; for Fold Amiloride (PSA4022 = 100): relative potency, PSA4022 = 100, using IC50 from PSA4022 in same run
T1 construct: endogenous in cells; host or cells: primary canine bronchial epithelial cells from freshly excised airways, cultured at air-liquid interface and mounted in Ussing chambers
T1 sequence (A0A8I3Q679 1-649): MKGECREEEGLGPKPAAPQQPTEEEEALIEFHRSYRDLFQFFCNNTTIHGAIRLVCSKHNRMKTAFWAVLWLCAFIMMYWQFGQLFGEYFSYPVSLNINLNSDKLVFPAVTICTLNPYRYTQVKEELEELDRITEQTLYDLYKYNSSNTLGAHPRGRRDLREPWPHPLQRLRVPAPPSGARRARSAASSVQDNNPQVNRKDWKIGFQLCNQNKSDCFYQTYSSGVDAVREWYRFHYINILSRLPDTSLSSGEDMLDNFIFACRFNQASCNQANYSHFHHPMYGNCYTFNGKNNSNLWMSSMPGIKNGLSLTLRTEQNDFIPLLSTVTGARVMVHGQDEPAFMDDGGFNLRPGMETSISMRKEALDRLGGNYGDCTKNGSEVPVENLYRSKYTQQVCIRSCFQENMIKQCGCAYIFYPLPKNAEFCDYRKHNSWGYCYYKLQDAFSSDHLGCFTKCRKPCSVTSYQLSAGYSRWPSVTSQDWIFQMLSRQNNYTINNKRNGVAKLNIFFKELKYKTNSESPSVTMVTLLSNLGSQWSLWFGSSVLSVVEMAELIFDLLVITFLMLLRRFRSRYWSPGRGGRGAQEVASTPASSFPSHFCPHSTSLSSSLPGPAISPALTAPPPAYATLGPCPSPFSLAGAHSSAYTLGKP
T1 sequence (Q95165 1-641): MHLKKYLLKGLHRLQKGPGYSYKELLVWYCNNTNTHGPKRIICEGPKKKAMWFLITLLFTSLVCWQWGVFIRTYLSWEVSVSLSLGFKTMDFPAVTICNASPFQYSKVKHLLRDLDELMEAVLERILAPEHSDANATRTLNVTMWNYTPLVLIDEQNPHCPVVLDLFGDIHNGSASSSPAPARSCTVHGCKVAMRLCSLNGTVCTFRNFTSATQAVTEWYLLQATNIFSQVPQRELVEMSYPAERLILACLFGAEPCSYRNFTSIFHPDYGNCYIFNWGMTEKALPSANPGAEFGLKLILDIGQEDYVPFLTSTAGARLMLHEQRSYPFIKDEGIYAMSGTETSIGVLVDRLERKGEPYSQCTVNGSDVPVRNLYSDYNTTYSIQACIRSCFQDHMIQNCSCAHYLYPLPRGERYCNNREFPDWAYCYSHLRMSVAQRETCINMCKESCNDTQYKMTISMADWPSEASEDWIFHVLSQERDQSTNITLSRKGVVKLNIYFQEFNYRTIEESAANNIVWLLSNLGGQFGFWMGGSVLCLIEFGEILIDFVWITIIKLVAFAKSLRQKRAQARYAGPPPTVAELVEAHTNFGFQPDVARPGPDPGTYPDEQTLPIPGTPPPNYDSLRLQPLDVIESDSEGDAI
T1 sequence (A0A8I3MKE6 1-646): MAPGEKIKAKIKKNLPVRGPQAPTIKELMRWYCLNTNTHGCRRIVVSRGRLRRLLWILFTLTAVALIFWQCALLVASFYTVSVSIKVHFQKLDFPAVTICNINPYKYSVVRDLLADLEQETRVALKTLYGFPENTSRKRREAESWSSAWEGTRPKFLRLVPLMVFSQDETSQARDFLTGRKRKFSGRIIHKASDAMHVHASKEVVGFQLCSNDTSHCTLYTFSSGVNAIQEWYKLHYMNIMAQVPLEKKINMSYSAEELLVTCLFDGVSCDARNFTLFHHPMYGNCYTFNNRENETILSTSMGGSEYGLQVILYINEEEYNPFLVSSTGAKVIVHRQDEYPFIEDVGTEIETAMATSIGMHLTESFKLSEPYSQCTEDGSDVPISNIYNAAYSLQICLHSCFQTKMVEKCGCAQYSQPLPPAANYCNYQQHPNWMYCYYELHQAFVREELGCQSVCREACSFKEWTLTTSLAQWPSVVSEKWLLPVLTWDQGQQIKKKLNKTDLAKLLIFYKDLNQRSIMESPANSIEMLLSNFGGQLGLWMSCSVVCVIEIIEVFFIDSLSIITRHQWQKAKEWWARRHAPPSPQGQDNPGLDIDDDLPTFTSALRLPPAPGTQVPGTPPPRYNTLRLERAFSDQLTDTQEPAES
Description: One assay used to assess mechanism of action and/or potency of the compounds of the present invention involves the determination of lumenal drug inhibition of airway epithelial sodium currents measured under short circuit current (ISC) using airway epithelial monolayers mounted in Ussing chambers. Cells obtained from freshly excised human, dog or sheep airways are seeded onto porous 0.4 micron Snapwell™ Inserts (CoStar), cultured at air-liquid interface (ALI) conditions in hormonally defined media, and assayed for sodium transport activity (ISC in μA/cm^2) while bathed in Krebs Bicarbonate Ringer (KBR) in Ussing chambers. All test drug additions are to the lumenal bath with half-log dose addition protocols (from 1×10^−11 M to 3×10^−5 M), and the cumulative change in ISC (inhibition) recorded. All drugs are prepared in dimethyl sulfoxide as stock solutions at a concentration of 1×10^−2 M and stored at −20° C. Six preparations are typically run in parallel; one preparation per run incorporates a positive control. All data from the voltage clamps are collected via a computer interface and analyzed off-line.
Dose-effect relationships for all compounds are considered and analyzed by the Prism 3.0 program. EC50 values, maximal effective concentrations are calculated and compared to positive controls.
Utilizing the tests set forth above, Table 3 summaries the ENaC blocking ability of some of the amides of this invention when assayed in canine bronchial epithelium.
Utilizing the tests set forth above, Table 4 summaries the ENaC blocking ability of some of the Esters of this invention when assayed in canine bronchial epithelium.

[3] = 0.12% sodium chloride solution, 0.12% NaCl solution, methanesulfonic acid salts, ambient temperature, read-out: S1 = Solubility in 0.12% NaCl Solution
[4] = 0.9% sodium chloride solution (normal saline), 0.9% NaCl solution (normal saline), methanesulfonic acid salts, ambient temperature, read-out: S2 = Solubility in 0.9% NaCl Solution (normal Saline)
[5] = Table 3, read-out: IC50 (nM), Epithelial Sodium Channel Blocking Activity of Selected Amides
[6] = Table 4, read-out: IC50 (nM), Epithelial Sodium Channel Blocking Activity of Selected Esters

SMILES	melting point	solubility ([1]; 0.12% sodium chloride solution, 0.12% saline solution, read-out: solubility in 0.12% saline solution)	solubility [1, 3]	solubility [1, 4]	Fold Amiloride (PSA4022 = 100) ([2]; Table 3)	IC50 [2, 5]	IC50 [2, 6]	Fold Amiloride (PSA4022 = 100) ([2]; Table 4)
CS(=O)(=O)O.CS(=O)(=O)O.N=C(NCCCCc1ccc(C(=O)N2CCNCC2)cc1)NC(=O)c1nc(Cl)c(N)nc1N [PSA23607, N-(3,5-Diamino-6-chloropyrazine-2-carbonyl)-N′-{4-[4-(piperazine-1-carbonyl)phenyl]butyl}guanidine bis-methanesulfonate]	–	> 5000 µg/mL	–	–	–	–	–	–
N=C(NCCCCc1ccc(OCC(N)=O)cc1)NC(=O)c1nc(Cl)c(N)nc1N [PSA 9714, reference compound]	–	–	< 100 µg/mL	< 100 µg/mL	62	–	–	–
N=C(NCCCCc1ccc(OCC(=O)N2CCNCC2)cc1)NC(=O)c1nc(Cl)c(N)nc1N [PSA 19913]	72 to 74 °C	–	> 5000 µg/mL	–	98	9 ± 1 nM	–	–
CN(C)CCNC(=O)COc1ccc(CCCCNC(=N)NC(=O)c2nc(Cl)c(N)nc2N)cc1 [PSA 23185a]	97 to 99 °C	–	> 5000 µg/mL	–	59	14 ± 9 nM	–	–
N=C(NCCCCc1ccc(OCC(=O)NCCN(CCO)CCO)cc1)NC(=O)c1nc(Cl)c(N)nc1N [PSA 23450]	87 to 89 °C	–	> 5000 µg/mL	> 5000 µg/mL	38	18 nM	–	–
N=C(NCCCCc1ccc(OCC(=O)NCCN)cc1)NC(=O)c1nc(Cl)c(N)nc1N [PSA 23778]	105 to 107 °C (dec.)	–	> 5000 µg/mL	–	146	–	–	–
CC(C)(C)OC(=O)NCCOC(=O)COc1ccc(CCCCNC(N)=NC(=O)c2nc(Cl)c(N)nc2N)cc1 [PSA 25309, (4-{4-[N′-(3,5-Diamino-6-chloropyrazine-2-carbonyl)guanidino]butyl}phenoxy)acetic acid 2-tert-butoxycarbonylaminoethyl ester]	80 to 82 °C	–	–	–	–	–	4 nM	119

Results, then the molecule that gave them:

melting point	solubility ([1]; 0.12% sodium chloride solution, 0.12% saline solution, read-out: solubility in 0.12% saline solution)	solubility [1, 3]	solubility [1, 4]	Fold Amiloride (PSA4022 = 100) ([2]; Table 3)	IC50 [2, 5]	IC50 [2, 6]	Fold Amiloride (PSA4022 = 100) ([2]; Table 4)	SMILES
187 to 190 °C	–	–	–	–	–	–	–	CN(C)CCCNC(=O)COc1ccc(CCCCNC(=N)NC(=O)c2nc(Cl)c(N)nc2N)cc1 (as salt: methanesulfonate) [PSA 24304, 2-(4-{4-[N′-(3,5-diamino-6-chloropyrazine-2-carbonyl)guanidino]-butyl}phenoxy)-N-(3-dimethylaminopropyl)acetamide dimethanesulfonate]
–	–	> 5000 µg/mL	–	173	4 ± 2 nM	–	–	CN(C)CCCNC(=O)COc1ccc(CCCCNC(=N)NC(=O)c2nc(Cl)c(N)nc2N)cc1 [PSA 24304, 2-(4-{4-[N′-(3,5-diamino-6-chloropyrazine-2-carbonyl)guanidino]-butyl}phenoxy)-N-(3-dimethylaminopropyl)acetamide dimethanesulfonate]
188 to 190 °C	–	> 5000 µg/mL	> 5000 µg/mL	152	6 ± 5 nM	–	–	CN(C)CCCCNC(=O)COc1ccc(CCCCNC(=N)NC(=O)c2nc(Cl)c(N)nc2N)cc1 [PSA 24305]
–	–	–	–	–	–	19 ± 16 nM	38	N=C(NCCCCc1ccc(OCC(=O)OCCN2CCCCC2)cc1)NC(=O)c1nc(Cl)c(N)nc1N [PSA 25453, (4-{4-[N′-(3,5-diamino-6-chloropyrazine-2-carbonyl)guanidino]butyl}-phenoxy)acetic acid 2-piperidin-1-yl-ethyl ester]
–	–	–	–	–	–	12 ± 2 nM	44	N=C(NCCCCc1ccc(OCC(=O)OCCN)cc1)NC(=O)c1nc(Cl)c(N)nc1N [PSA 25454, (4-{4-[N′-(3,5-diamino-6-chloropyrazine-2-carbonyl)guanidino]butyl}-phenoxy)acetic acid 2-aminoethyl ester dihydrochloride]
–	–	–	–	–	–	3 nM	189	N=C(NCCCCc1ccc(OCC(=O)OCC2CCNCC2)cc1)NC(=O)c1nc(Cl)c(N)nc1N [PSA 25720, (4-{4-[N′-(3,5-diamino-6-chloropyrazine-2-carbonyl)guanidino]butyl}-phenoxy)acetic acid piperidin-4-yl-methyl ester dihydrochloride]
